The substances below were run on human IGF-IR mRNA (assay: Antisense inhibition of human IGF-IR mRNA levels by quantitative RT-PCR (Table 1)). Conditions: as shown in Table 1.
Assay type: cell-based
Set-up: %INHIB (human IGF-IR mRNA levels): concentration or dose not given beside the values
Description: Treatment of A549 cell cultures with oligonucleotides targeting IGF-IR is as described in WO 2004/072284.
Quantitation of IGF-IR mRNA levels was accomplished by RT-PCR using the ABI PRISM (trademark) 7600, 7700, or 7900 Sequence Detection System (PE-Applied Biosystems, Foster City, Calif.) according to manufacturer's instructions. This is a closed-tube, non-gel-based, fluorescence detection system which allows high-throughput quantitation of PCR products in real-time. As opposed to standard PCR in which amplification products are quantitated after the PCR is completed, products in real-time quantitative PCR are quantitated as they accumulate. This is accomplished by including in the PCR reaction an oligonucleotide probe that anneals specifically between the forward and reverse PCR primers, and contains two fluorescent dyes. A reporter dye (e.g., FAM or JOE, obtained from either PE-Applied Biosystems, Foster City, Calif., Operon Technologies Inc., Alameda, Calif. or Integrated DNA Technologies Inc., Coralville, Iowa) is attached to the 5′-end of the probe and a quencher dye (e.g., TAMRA, obtained from either PE-Applied Biosystems, Foster City, Calif., Operon Technologies Inc., Alameda, Calif. or Integrated DNA Technologies Inc., Coralville, Iowa) is attached to the 3′-end of the probe. When the probe and dyes are intact, reporter dye emission is quenched by the proximity of the 3′ quencher dye. During amplification, annealing of the probe to the target sequence creates a substrate that can be cleaved by the 5′-exonuclease activity of Taq polymerase. […] With each cycle, additional reporter dye molecules are cleaved from their respective probes, and the fluorescence intensity is monitored at regular intervals by laser optics built into the ABI PRISM (trademark) Sequence Detection System. In each assay, a series of parallel reactions containing serial dilutions of mRNA from untreated control samples generates a standard curve that is used to quantitate the percent inhibition after antisense oligonucleotide treatment of test samples.
PCR reagents were obtained from Invitrogen Corporation, (Carlsbad, Calif.). RT-PCR reactions were carried out by adding 20 μL PCR cocktail (2.5×PCR buffer minus MgCl2, 6.6 mM MgCl2, 375 μM each of dATP, dCTP, […] and dGTP, 375 nM each of forward primer and reverse primer, 125 nM of probe, 4 Units RNAse inhibitor, 1.25 Units PLATINUM (registered trademark) Taq, 5 Units MuLV reverse transcriptase, and 2.5×ROX dye) to 96-well plates containing 30 μL total RNA solution (20-200 ng). The RT reaction was carried out by incubation for 30 minutes at 48° C. Following a 10 minute incubation at 95° C. to activate the PLATINUM (trademark) Taq, 40 cycles of a two-step PCR protocol were carried out: 95° C. for 15 seconds (denaturation) followed by 60° C. for 1.5 minutes (annealing/extension).
Gene target quantities obtained by RT-PCR are normalized using either the expression level of GAPDH, a gene whose expression is constant, or by quantifying total RNA using RiboGreen (trademark) (Molecular Probes, Inc. Eugene, Oreg.). GAPDH expression is quantified by RT-PCR, by being run simultaneously with the target, multiplexing, or separately. Total RNA is quantified using RiboGreen (trademark) RNA quantification reagent (Molecular Probes, Inc. Eugene, Oreg.). Methods of RNA quantification by RiboGreen (trademark) are taught in Jones et al., 1998.
Probes and primers to human IGF-IR were designed to hybridize to the IGF-IR nucleotide sequence, using published sequence information (GenBank accession number NM000875 (SEQ ID NO:76) or M69229 (SEQ ID NO:77) which is the 5′ untranslated of the IGF-IR gene sequence (see FIG. 6).
In accordance with the present invention, a series of antisense compounds were designed to target different regions of the human IGF-IR mRNA or the 5′ untranslated region, using published sequences set forth in NM000875 (SEQ ID NO:77) and M69229 (SEQ ID NO:76). […]

For “175317 (antisense CGAAGGAAACAATACTCCGA; listed as DNA, chemistry not fully specified) [compound 175317]”, the “inhibition of IGF-IR expression (lead compounds)” value was “demonstrated inhibition”.
With “175307 (antisense AAGTCTCAAACTCAGTCTTC; listed as DNA, chemistry not fully specified) [compound 175307]” the “inhibition of IGF-IR expression (lead compounds)” value was “demonstrated inhibition”.

Same assay, conditions: quantitative RT-PCR; averages from 3 experiments

First: 323733 (antisense CCATGGTGAGGGTCACAGCC; listed as DNA, chemistry not fully specified) [compound 323733]
Second: 323739 (antisense CTGCTCTCAAAGAAAGGGTA; listed as DNA, chemistry not fully specified) [compound 323739]
The “%INHIB (human IGF-IR mRNA levels)” value of the first is higher: 78% for the first, 58% for the second.

Going from “175319 (antisense GAAACAATACTCCGAAGGGC; listed as DNA, chemistry not fully specified) [compound 175319]” to “175292 (antisense AGTCTCAAACTCAGTCTTCG; listed as DNA, chemistry not fully specified) [compound 175292]”, the “%INHIB (human IGF-IR mRNA levels)” value rises from 63% to 78%.

First: 175303 (antisense GAAGGTCACAGCCGAGGCGA; listed as DNA, chemistry not fully specified) [compound 175303]
Second: 323698 (antisense GCTGCTGATAGTCGTTGCGG; listed as DNA, chemistry not fully specified) [compound 323698]
The “%INHIB (human IGF-IR mRNA levels)” value of the first is higher: 82% for the first, 72% for the second.

Going from “323760 (antisense GCGATCTCCCAGAGGACGAC; listed as DNA, chemistry not fully specified) [compound 323760]” to “323769 (antisense CATCACTGACCTCTTTCTAT; listed as DNA, chemistry not fully specified) [compound 323769]”, the “%INHIB (human IGF-IR mRNA levels)” value falls from 72% to 0%.

Going from “175299 (antisense AATCTGCCTAGGCGAGGAAA; listed as DNA, chemistry not fully specified) [compound 175299]” to “175312 (antisense TTTCAAACCCGGAGAGGCAG; listed as DNA, chemistry not fully specified) [compound 175312]”, the “%INHIB (human IGF-IR mRNA levels)” value falls from 78% to 31%.

Compared with “323716 (antisense CACAGGTCCCCACATTCCTT; listed as DNA, chemistry not fully specified) [compound 323716]”, “323705 (antisense TTGTAGAAGAGTTTCCAGCC; listed as DNA, chemistry not fully specified) [compound 323705]” is higher in “%INHIB (human IGF-IR mRNA levels)” value: 42% for the first, 52% for the second.

Going from “323726 (antisense TGGGCACATTTTCTGGCAGC; listed as DNA, chemistry not fully specified) [compound 323726]” to “175297 (antisense TGCTGGTAAACAAGAGCCCC; listed as DNA, chemistry not fully specified) [compound 175297]”, the “%INHIB (human IGF-IR mRNA levels)” value rises from 57% to 61%.

First: 323752 (antisense TCCTGTCTGGACACACATTC; listed as DNA, chemistry not fully specified) [compound 323752]
Second: 323714 (antisense ATGTAGTTATTGGACACCGC; listed as DNA, chemistry not fully specified) [compound 323714]
The “%INHIB (human IGF-IR mRNA levels)” value of the first is higher: 66% for the first, 64% for the second.

First: 323723 (antisense AGCAGCGGTAGTTGTACTCA; listed as DNA, chemistry not fully specified) [compound 323723]
Second: 323724 (antisense GGTCCAGCAGCGGTAGTTGT; listed as DNA, chemistry not fully specified) [compound 323724]
The “%INHIB (human IGF-IR mRNA levels)” value of the first is higher: 70% for the first, 60% for the second.

Compared with “323722 (antisense CGGTAGTTGTACTCATTGTT; listed as DNA, chemistry not fully specified) [compound 323722]”, “323702 (antisense CGGCCTTGGAGATGAGCAGG; listed as DNA, chemistry not fully specified) [compound 323702]” is lower in “%INHIB (human IGF-IR mRNA levels)” value: 71% for the first, 66% for the second.

First: 175317 (antisense CGAAGGAAACAATACTCCGA; listed as DNA, chemistry not fully specified) [compound 175317]
Second: 323734 (antisense TTGGTGCGAATGTACAAGAT; listed as DNA, chemistry not fully specified) [compound 323734]
The “%INHIB (human IGF-IR mRNA levels)” value of the first is higher: 84% for the first, 61% for the second.

“323731 (antisense GTCCAGGGCTTCAGCCCATG; listed as DNA, chemistry not fully specified) [compound 323731]” and “175326 (antisense CCCAAATCCAGGACACACAC; listed as DNA, chemistry not fully specified) [compound 175326]” are the same in “%INHIB (human IGF-IR mRNA levels)” value: 74% for the first, 74% for the second.

Compared with “175313 (antisense TAGGCGAGGAAAAACAAGCC; listed as DNA, chemistry not fully specified) [compound 175313]”, “323766 (antisense GCCCATGTCAGTTAAGGGTT; listed as DNA, chemistry not fully specified) [compound 323766]” is higher in “%INHIB (human IGF-IR mRNA levels)” value: 62% for the first, 69% for the second.

First: 323717 (antisense CTGGACACAGGTCCCCACAT; listed as DNA, chemistry not fully specified) [compound 323717]
Second: 323713 (antisense GTTATTGGACACCGCATCCA; listed as DNA, chemistry not fully specified) [compound 323713]
The “%INHIB (human IGF-IR mRNA levels)” value of the first is higher: 45% for the first, 31% for the second.

First: 175307 (antisense AAGTCTCAAACTCAGTCTTC; listed as DNA, chemistry not fully specified) [compound 175307]
Second: 323735 (antisense ATTTTGTCTTTGGAGCAGTA; listed as DNA, chemistry not fully specified) [compound 323735]
The “%INHIB (human IGF-IR mRNA levels)” value of the first is higher: 86% for the first, 65% for the second.

First: 175311 (antisense TAATGCTGGTAAACAAGAGC; listed as DNA, chemistry not fully specified) [compound 175311]
Second: 323742 (antisense TCCTTGTTATCCACTCTGCT; listed as DNA, chemistry not fully specified) [compound 323742]
The “%INHIB (human IGF-IR mRNA levels)” value of the first is lower: 53% for the first, 58% for the second.

First: 323743 (antisense TTGCAGCTGTGGATATCGAT; listed as DNA, chemistry not fully specified) [compound 323743]
Second: 175304 (antisense TCGCTGAAGGTCACAGCCGA; listed as DNA, chemistry not fully specified) [compound 175304]
The “%INHIB (human IGF-IR mRNA levels)” value of the first is lower: 53% for the first, 76% for the second.

Compared with “323715 (antisense CCACAATGTAGTTATTGGAC; listed as DNA, chemistry not fully specified) [compound 323715]”, “323727 (antisense GGAGTAATTCCCTTCTAGCT; listed as DNA, chemistry not fully specified) [compound 323727]” is lower in “%INHIB (human IGF-IR mRNA levels)” value: 65% for the first, 21% for the second.

First: 323711 (antisense CCCCCGAGTAATGTTCCTCA; listed as DNA, chemistry not fully specified) [compound 323711]
Second: 323696 (antisense CCAGACTTCATTCCTTTTAT; listed as DNA, chemistry not fully specified) [compound 323696]
The “%INHIB (human IGF-IR mRNA levels)” value of the first is lower: 41% for the first, 44% for the second.
